Results published in patent US9975907B2, “Pyrimidinones as PI3K inhibitors” (Incyte Corporation, priority 2009, dated 2018).

Key:
[1] = system: Pfeiffer cell line (diffuse large B cell lymphoma); assay: Pfeiffer Cell Proliferation Assay; assay type: cell-based; settings: Homo sapiens, Pfeiffer, 3-4 days, [3H]-thymidine incorporation
Method: Pfeiffer cell line (diffuse large B cell lymphoma) was purchased from ATCC (Manassas, Va.) and maintained in the culture medium recommended (RPMI and 10% FBS). To measure the anti-proliferation activity of the PI3Kδ submittals, the Pfeiffer cells were plated with the culture medium (2×10^3 cells/well/per 200 μl) into 96-well ultra-low binding plates (Corning, Corning, N.Y.), in the presence or absence of a concentration range of test compounds. After 3-4 days, [^3H]-thymidine (1 μCi/well) (PerkinElmer, Boston, Mass.) in PBS was then added to the cell culture for an additional 12 hrs before the incorporated radioactivity was separated by filtration with water through GF/B filters (Packard Bioscience, Meriden, Conn.) and measured by liquid scintillation counting with a TopCount (Packard Bioscience). See Table 3 for data related to compounds of the invention.

[2] = system: purified B cells from human PBMC; assay: B Cell Proliferation Assay; assay type: cell-based; settings: anti-human IgM stimulated, three days, [3H]-thymidine incorporation
Method: To acquire B cells, human PBMC were isolated from the peripheral blood of normal, drug free donors by standard density gradient centrifugation on Ficoll-Hypague (GE Healthcare, Piscataway, N.J.) and incubated with anti-CD19 microbeads (Miltenyi Biotech, Auburn, Calif.). The B cells were then purified by positive immunosorting using an autoMacs (Miltenyi Biotech) according to the manufacturer's instruction.
The purified B cells (2×10^5/well/200 μL) were cultured in 96-well ultra-low binding plates (Corning, Corning, N.Y.) in RPMI1640, 10% FBS and goat F(ab′)2 anti-human IgM (10 μg/ml) (Invitrogen, Carlsbad, Calif.), in the presence of different amount of test compounds, for three days. [^3H]-thymidine (1 μCi/well) (PerkinElmer, Boston, Mass.) in PBS was then added to the B cell cultures for an additional 12 hrs before the incorporated radioactivity was separated by filtration with water through GF/B filters (Packard Bioscience, Meriden, Conn.) and measured by liquid scintillation counting with a TopCount (Packard Bioscience). Compounds having and IC^50 value of 10 μM or less are considered active. See Table 2 for data related to compounds of the invention.

PI3Kδ = PI3Kδ (Homo sapiens (Human), UniProt O00329); assay: PI3K Enzyme Assay A2 ([γ-33P]ATP filter plate), PI3Kδ; assay type: biochemical; settings: column a, Examples 15, 30 and 44 used Assay A2, 1000 μM ATP
Sequence of PI3Kδ (O00329 whole entry, species assumed, canonical isoform): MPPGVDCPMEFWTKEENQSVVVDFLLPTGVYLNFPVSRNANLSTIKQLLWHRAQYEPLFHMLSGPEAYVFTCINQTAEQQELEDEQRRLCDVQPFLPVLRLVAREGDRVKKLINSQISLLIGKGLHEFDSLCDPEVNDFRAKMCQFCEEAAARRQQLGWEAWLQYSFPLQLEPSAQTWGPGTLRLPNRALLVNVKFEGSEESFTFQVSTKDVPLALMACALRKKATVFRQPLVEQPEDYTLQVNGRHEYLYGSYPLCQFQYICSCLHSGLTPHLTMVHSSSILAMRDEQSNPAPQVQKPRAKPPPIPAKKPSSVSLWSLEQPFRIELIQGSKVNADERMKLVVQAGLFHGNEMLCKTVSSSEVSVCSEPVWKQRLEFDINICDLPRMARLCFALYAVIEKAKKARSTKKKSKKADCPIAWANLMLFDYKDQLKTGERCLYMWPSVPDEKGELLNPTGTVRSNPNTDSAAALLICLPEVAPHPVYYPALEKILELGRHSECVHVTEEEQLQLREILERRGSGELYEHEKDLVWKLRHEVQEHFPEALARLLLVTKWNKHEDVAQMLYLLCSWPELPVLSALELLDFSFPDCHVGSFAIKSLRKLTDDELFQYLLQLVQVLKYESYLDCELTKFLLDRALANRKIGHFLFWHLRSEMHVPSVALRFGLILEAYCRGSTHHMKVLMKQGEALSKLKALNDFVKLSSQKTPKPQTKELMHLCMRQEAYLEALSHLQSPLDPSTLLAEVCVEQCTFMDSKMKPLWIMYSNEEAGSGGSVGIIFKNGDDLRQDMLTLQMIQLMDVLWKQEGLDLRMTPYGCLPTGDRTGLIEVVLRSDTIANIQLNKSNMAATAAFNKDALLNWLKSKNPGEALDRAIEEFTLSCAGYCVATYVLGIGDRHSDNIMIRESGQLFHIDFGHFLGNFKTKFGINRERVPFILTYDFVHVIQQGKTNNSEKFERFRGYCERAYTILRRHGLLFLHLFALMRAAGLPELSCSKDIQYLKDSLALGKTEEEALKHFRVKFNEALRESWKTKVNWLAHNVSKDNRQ
Sequence of PI3Kδ (P27986 whole entry partner, species assumed, canonical isoform): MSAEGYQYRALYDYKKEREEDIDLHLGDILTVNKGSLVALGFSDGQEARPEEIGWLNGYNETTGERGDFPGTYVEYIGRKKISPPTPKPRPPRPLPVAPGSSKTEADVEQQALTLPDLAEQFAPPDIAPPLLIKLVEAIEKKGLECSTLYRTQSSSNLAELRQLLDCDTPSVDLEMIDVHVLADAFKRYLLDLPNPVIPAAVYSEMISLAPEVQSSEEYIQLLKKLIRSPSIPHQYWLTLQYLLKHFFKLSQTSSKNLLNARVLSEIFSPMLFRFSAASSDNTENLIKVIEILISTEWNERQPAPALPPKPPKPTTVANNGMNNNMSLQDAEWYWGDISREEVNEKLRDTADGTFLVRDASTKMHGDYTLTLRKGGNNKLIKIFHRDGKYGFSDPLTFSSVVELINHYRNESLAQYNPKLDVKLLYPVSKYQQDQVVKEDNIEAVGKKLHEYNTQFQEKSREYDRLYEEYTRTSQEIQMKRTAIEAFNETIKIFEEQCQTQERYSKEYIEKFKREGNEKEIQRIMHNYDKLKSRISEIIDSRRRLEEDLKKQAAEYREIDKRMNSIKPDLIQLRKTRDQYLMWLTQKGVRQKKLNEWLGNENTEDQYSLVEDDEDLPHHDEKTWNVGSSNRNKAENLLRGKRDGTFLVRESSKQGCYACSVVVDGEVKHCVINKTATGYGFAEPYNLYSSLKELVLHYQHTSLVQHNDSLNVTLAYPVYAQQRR
Method: Materials: Lipid kinase substrate, phosphoinositol-4,5-bisphosphate (PIP2), was purchased from Echelon Biosciences (Salt Lake City, Utah). PI3K isoforms α, β, δ and γ were purchased from Millipore (Bedford, Mass.). ATP, MgCh, DTT, EDTA, MOPS and CHAPS were purchased from Sigma-Aldrich (St. Louis, Mo.). The kinase reaction was conducted in clear-bottom 96-well plate from Thermo Fisher Scientific in a final volume of 24 μL. Inhibitors were first diluted serially in DMSO and added to the plate wells before the addition of other reaction components. The final concentration of DMSO in the assay was 0.5%. The PI3K assays were carried out at room temperature in 20 mM MOPS, pH 6.7, 10 mM MgCl2, 5 mM DTT and CHAPS 0.03%. The reaction mixture was prepared containing 50 μM PIP2, kinase and varying concentration of inhibitors. Reactions were initiated by the addition of ATP containing 2.2 μCi [γ-^33P]ATP to a final concentration of 1000 μM. […] Reactions were incubated for 180 min and terminated by the addition of 100 μL of 1 M potassium phosphate pH 8.0, 30 mM EDTA quench buffer. […] After the plate sealing, the radioactivity of the product was determined by scintillation counting on Topcount (Perkin-Elmer). […]

Measured: IC50

Cc1csc2nc(C(C)Nc3ncnc4[nH]cnc34)c(-c3cc(F)cc(F)c3)c(=O)n12 (single isomer, unassigned) [Example 44, 6-(3,5-difluorophenyl)-3-methyl-7-[1-(9H-purin-6-ylamino)ethyl]-5H-[1,3]thiazolo[3,2-a]pyrimidin-5-one]
< 50 nM: all assays above
